From patent US7294715B2, “Aporphine and oxoaporphine compounds and pharmaceutical use thereof” (Lotus Pharmaceutical Co., Ltd., priority 2003, dated 2007)
Marks after values point to notes of the source that are not given here.

Tests used:
[1] = tested on: Langendorff perfused rat hearts; assay: Coronary flow in Langendorff perfused rat hearts; details: FIG. 3
Method: Adult male Wistar rats weighing 275-325 g, were intraperitoneally anesthetized with sodium pentobarbital (50 mg·kg^−1) and given heparin (300 Ukg·kg^−1) by the same route. Hearts were rapidly excised and immersed in 37° C. perfusion medium. The aorta was cannulated and retrograde-perfused at 80 mmHg with Tyrode's solution containing 120 mM NaCl, 25 mM NaHCO3, 3 mM KCl, 1.2 mM NaH2PO4, 2.5 mM CaCl2, 1.2 mM MgCl2, and […] 5.5 mM glucose. The perfusate was equilibrated with 95% O2, 5% CO2 at 37° C. Perfusion pressure was monitored using a MLT844/D pressure transducer (Capto, Horten, Norway) connected to a PowerLab (ADInstruments, Castle Hill, Australia). The coronary effluent was collected for the measurement of coronary flow.

MCAO rats = assay: Middle cerebral artery occlusion (MCAO) cerebral ischemia lesions in rats; format: in vivo, rat; details: for Infarcted Volume (X ± SEM mm^3): vehicle D.W. 214.75 ± 26.37
Text: The same effects of preventing the ischemia-reperfusion damages with aporphine and oxoaporphine compounds also found in the other organs, such as brain. After Compound 16 or Compound 21, which is a compound of Formula B (where R1, R2, R5, R6 are OMe, R3, R4, R7 are H) was administrated to male Sprague Dawley rats, the effects of test compounds on the artery occlusive cerebral ischemia in the rats were monitored. First, permanent brain ischemia was induced by middle cerebral artery occlusion (MCAO) in the rats. At 0, 6, 24, 48, and 54 hours after the formation of middle cerebral artery occlusion (MCAO), Group I (i.e., the control group) animals were given the solvent (100% DMSO) (1 ml/kg, i.p.); Group II (i.e., the control group) animals were given the distilled water (D.W.) (1 ml/kg, i.p.);Group III animals (NCM-121) were given Compound 16 (1.5 mg/kg, i.p.); Group IV animals (NCM-124) were given Compound 21 (1.7 mg/kg, i.p); Group V animals were given MK-801 (0.3 mg/kg, i.p.), an antagonist of the N-methyl-D-aspartic acid (NMDA) receptor. There were ten rats in each group. Four days after the formation of MCAO, all the rats were sacrificed. Brain sections were made and stained with 2% cresol purple. The areas and volumes of cerebral ischemia lesions in each section were recorded.

[2] = Serum glucose levels in NIDDM animals; format: in vivo, mouse; details: NIDDM rats, n=5, vehicle 0
eNOS = assay: Western blot analysis for eNOS protein in ischemia-reperfusion rat heart; format: in vivo; details: ischemia 25 min, reperfusion 2 h, 0.5 mg/kg at 5 min prior to reperfusion, P<0.05 vs vehicle
Method: To elucidate the effects of the test compounds on the infarct size caused by regional myocardial ischemia and reperfusion, all animals were randomized into 8 study groups. The first group (Sham) comprised of animals not subjected to regional myocardial ischemia (25 min) followed by reperfusion (2 h) and treated with vehicle (1 ml/kg) 5 minutes prior to the onset of reperfusion. The second group of animals were subjected to regional myocardial ischemia (25 min) followed by reperfusion (2 h) and were treated with vehicle (saline, 1 ml/kg). […]
Hearts were pulverized at −80° C. using liquid nitrogen and a stainless steel pestle and mortar. […] Total protein concentrations were determined using the Bradford method (Bio-Rad, UK). […] Signals were detected using the enhanced chemiluminescence (ECL™) detection system (Cell Signaling Technology, U.S.A.) and autoradiographic film. For quantification of protein expression all blots were reprobed for muscle α-actin expression using 1/2000 dilution of a mouse anti-human actin (muscle antibody (Serotec), followed by incubation with a goat anti-mouse HRP linked secondary antibody ( 1/2000 dilution) (DakoCytomation, Denmark). Densitometry analysis was performed on scanned images (Hewlett Packard Scanjet) and analyzed using Scion Image (Scion Corp, National Institutes of Health, Bethesda, Md.).

[3] = tested on: focal cerebral ischemia-reperfusion rats; assay: Striatal blood flow in focal cerebral ischemia-reperfusion rats (laser Doppler flowmetry); format: in vivo, rat; details: 40-min common carotid occlusion plus endothelin-1, 24-hrs reperfusion, FIG. 4
[4] = tested on: regional myocardial ischemia and reperfusion (LAD occlusion); assay: Infarct size in a rat model of regional myocardial ischemia and reperfusion; format: in vivo; details: rat, LAD occlusion 25 min, reperfusion 2 h; 0.5 mg/kg i.v.; vehicle 58±2%; P<0.05 vs vehicle
Method: Seventy two male Wistar rats (215-300 g, Charles River, Margate, U.K.) were anaesthetized with thiopentone sodium (Intraval®, 120 mg/kg i.p.; Rhone-Merrieux, Essex, U.K.). The rats were tracheotomised and ventilated with a Harvard ventilator (70 strokes/min, tidal volume: 8-10 ml/kg, inspiratory oxygen concentration: 30%). Body temperature was maintained at 38±1° C. The right carotid artery was cannulated and connected to a pressure transducer (MLT 844, AD Instruments Ltd, Hastings, UK) to monitor mean arterial blood pressure and heart rate, which were continuously recorded on a data acquisition system (Powerlab® Version 4.0.4, AD Instruments, Hastings, UK) installed on a Dell Dimension 4100 personal computer, throughout the experiment. The right jugular vein was cannulated for the administration of test compound and Evans Blue dye (at the end of the experiment). A parasternal thoracotomy was performed, the heart was suspended in a temporary pericardial cradle and a snare occluder was placed around the left anterior descending coronary artery (LAD). After completion of the surgical procedure the animals were allowed to stabilize for 30 min before LAD ligation. The coronary artery was occluded at time 0 by tightening of the occluder. After 25 min of acute myocardial ischemia, the occluder was released to allow reperfusion for 2 h.
The test compounds were administered as a slow intravenous injection (i.v.) 5 min prior to the onset of reperfusion of the ischemic heart. Following the 2 h reperfusion period, the coronary artery was re-occluded and Evans Blue dye (1 ml of 2% w/v) was injected into the left ventricle, via the right jugular vein cannula, to distinguish between perfused and non-perfused (AAR) sections of the heart. The Evans Blue solution stains the perfused myocardium, while the occluded vascular bed remains uncolored. The animals were sacrificed with an overdose of anesthetic and the heart excised. The heart was sectioned into slices of 3-4 mm thick, the right ventricular wall was removed, and the AAR (pink) was separated from the non-ischemic (blue) area. […]

## COc1ccc2c(c1)-c1c(OC)ccc3c1C(C2=O)N(C)CC3 (stereo not drawn) [Compound 7, 1,10-dimethoxy-7-oxoaporphine]
other
  melting point: 162 to 164 °C

## COc1cc2c(cc1OC)-c1c(OC)c(OC)cc3ccnc(c13)C2=O [Compound 21]
[1]
  coronary blood flow: increasing coronary blood flow
MCAO rats; IP 1.7 mg/kg × 6, N=10, four days after MCAO
  Infarcted Volume (X ± SEM mm^3): 133.75 ± 19.57* mm^3
MCAO rats; IP 1.7 mg/kg × 6, vs Group II vehicle (D.W.)
  % Decrease in total volume of ischemic lesions: 37.72%
MCAO rats; comparison in words
  effects in reducing the areas and volumes of cerebral ischemia lesions as compared with MK-801: more significant effects

## COc1cc2c(cc1OC(C)C)C(=O)C1c3c(cc(OC(C)C)c(OC)c3-2)CCN1C (stereo not drawn) [Compound 3, 2,9-Diisopropyloxy-1,10-dimethoxy-7-oxoaporphine]
other
  melting point: 82 to 84 °C

## COc1cc2c(cc1O)C(=O)C1c3c(cc(OC(C)C)c(OC)c3-2)CCN1C (stereo not drawn) [Compound 4, 9-hydroxy-2-isopropyloxy-1,10-dimethoxy-7-oxoaporphine]
other
  melting point: 240 to 242 °C

## CN(C)C(=N)N=C(N)N [Metformin, reference compound]
[2]; 100 mg/kg × 3 days, po
  serum glucose Percentage of change (%): 39 ± 1.6%

## COc1cc2c(cc1OC)-c1c(O)c(OC)cc3c1C(C2)N(C)CC3 (stereo not drawn) [Compound 20]
eNOS
  reduction in eNOS protein expression caused by ischemia and reperfusion: significantly reduced
[1]
  coronary blood flow: increasing coronary blood flow
[3]
  blood flow in brain (striatal blood flow): increase in blood flow in brain
[4]
  infarct size: 34±4 % of the area at risk
[2]; 3 mg/kg × 3 days, iv, 90 minutes after last dose vs pre-treatment
  serum glucose Percentage of change (%): 12 ± 3.5%

## C[C@]12N[C@H](Cc3ccccc31)c1ccccc12 [MK-801, reference compound]
MCAO rats; IP 0.3 mg/kg × 6, N=10, four days after MCAO
  Infarcted Volume (X ± SEM mm^3): 47.34 ± 13.79* mm^3
MCAO rats; IP 0.3 mg/kg × 6, vs Group II vehicle (D.W.)
  % Decrease in total volume of ischemic lesions: 77.96%
